Assays:
[1] = clinical trials discontinued; cited from earlier work
SK-BR3 cells = assay: Anti-proliferative effect / cytotoxicity on SK-BR-3 breast tumor cells (crystal violet, FIG. 4); type: cell-based, human
Experimental: SK-BR-3 human breast carcinoma cells were from The American Type Culture Collection (Rockville, Md.). […] SK-BR-3 cells were cultured in high glucose DMEM:Ham's F-12 (50:50) supplemented with 10% heat-inactivated fetal bovine serum and 2 mM 1-glutamine (all from GIBCO/BRL, Grand Island, N.Y.).
Cells were plated at the following densities in 96-well microtiter culture plates: 2×10^4 per well for SK-BR-3; 10^4 per well for HMEC, SAEC and NHEK; and 3.5×10^4 per well for human hepatocytes (pre-plated on collagen-coated plates by In Vitro Technologies) and allowed to adhere overnight in the incubator (37° C., 5% CO2). […] After a 3 day incubation, the media were removed, the cell monolayers washed once with PBS and stained with crystal violet dye (0.5% crystal violet, 20% methanol).
For all experiments, after removal of the crystal violet dye, plates were allowed to air-dry overnight. The dye was then eluted with 0.1 M sodium citrate:ethanol (50:50), pH 4.2 and the plates read in an SLT 340 ATC plate-reader at a wavelength of 540 nm. Each treatment group consisted of 4 replicates and the data are represented as mean O.D.540+/− standard error or relative to cell proliferation as compared to untreated control cells (mean+/−s.e.).

Row | Compound | adverse effects in clinical trials [1] | cell growth inhibition (SK-BR3 cells)
1 | COc1cc2cc(c1Cl)N(C)C(=O)C[C@H](OC(=O)[C@H](C)N(C)C(C)=O)[C@]1(C)O[C@H]1[C@H](C)[C@@H]1C[C@@](O)(NC(=O)O1)[C@H](OC)/C=C/C=C(\C)C2 [maytansine] | peripheral neuropathy | 
2 | RITUXAN®: control, unrelated monoclonal antibody RITUXAN® |  | did not inhibit cell growth
